Source: patent publication US9045493B2, “Furo[3,2-b]- and thieno[3,2-b]pyridin derivatives” (Merck Patent GmbH, priority 2012, dated 2015)

Tests used:
phospho-IRF3 @ Ser 386 = test: Cell test: dose response inhibition of phospho-IRF3 @ Ser 386 in MDA-MB-468 cells; type: cell-based; details: Homo sapiens, Poly(I:C) stimulation, read-out: IC50 (reference inhibitor, phospho-IRF3 cell test)
Description: Dose Response Inhibition of Phospho-IRF3 @ Ser 386 Cell/MDAMB468/INH/PHOS/IMAG/pIRF3
This assay has been devised in order to assess the efficacy/potency of TBK1/IKKε inhibitor compounds based on the immunocytochemical detection of nuclear localised phospho-IRF3, a target directly downstream of TBK1.
Treatment with Polyinosine-polycytidylic acid (poly(I:C), a synthetic analog of doublestranded RNA (dsRNA), a molecular pattern associated with viral infection which is recognized by Toll-like receptor 3 (TLR3) is used to induce TBK1/IKKe activity and IRF3 phosphorylation at Ser386.
• Day 1: MDA-MB-468 cells are detached with HyQ-Tase, counted, and seeded into a 384-well clear bottom TC-surface plate at density of 10,000 cells per well in a total volume of 35 ul complete medium. Alternatively cells are directly seeded from frozen vials. • Day 2: Cells are pre-treated with inhibitor compounds for 1 h prior to Poly(I:C) stimulation. After 2 h of incubation with Poly(I:C), cells are fixed in (para)formaldehyde (PFA) and permeabilized with methanol (MeOH). The cells are then blocked and incubated with an anti-pIRF3 antibody at 4° C. overnight. • Day 3: The primary antibody is washed off, an AlexaFluor488-conjugated secondary is added, cells are counterstained with propidium iodide followed by image acquisition on IMX Ultra high content reader.

[1] = target: T1, TANK binding kinase (TBK1) (Homo sapiens, UniProt Q9UHD2); test: TBK1 enzyme assay (384-well Flashplate kinase assay); type: biochemical; details: 10 μM ATP, 120 Min at 30° C.
T1 sequence (Q9UHD2 1-729): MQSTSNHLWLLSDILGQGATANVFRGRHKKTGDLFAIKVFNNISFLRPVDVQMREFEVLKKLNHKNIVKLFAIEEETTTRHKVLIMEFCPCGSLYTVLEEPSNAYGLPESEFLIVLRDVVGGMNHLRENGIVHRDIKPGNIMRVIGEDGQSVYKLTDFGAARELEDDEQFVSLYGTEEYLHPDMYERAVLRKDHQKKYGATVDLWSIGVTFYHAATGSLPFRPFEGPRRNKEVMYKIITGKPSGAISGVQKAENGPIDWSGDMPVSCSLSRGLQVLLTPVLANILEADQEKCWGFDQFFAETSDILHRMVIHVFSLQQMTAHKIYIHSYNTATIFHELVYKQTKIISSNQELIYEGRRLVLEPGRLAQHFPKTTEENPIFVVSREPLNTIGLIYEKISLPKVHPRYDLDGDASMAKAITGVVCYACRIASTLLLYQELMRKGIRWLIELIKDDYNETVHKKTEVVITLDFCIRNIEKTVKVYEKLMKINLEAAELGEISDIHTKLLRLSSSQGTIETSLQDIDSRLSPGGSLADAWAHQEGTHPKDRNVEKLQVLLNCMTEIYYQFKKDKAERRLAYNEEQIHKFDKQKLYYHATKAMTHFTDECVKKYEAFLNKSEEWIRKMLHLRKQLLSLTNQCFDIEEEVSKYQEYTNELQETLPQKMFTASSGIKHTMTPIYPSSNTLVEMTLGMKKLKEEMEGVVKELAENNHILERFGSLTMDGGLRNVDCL
How it was run: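 Radiometric Flashplate assay: 0.6 nM TBK1, 800 nM biotinylated MELK-derived peptide and 10 μM ATP with 33P-ATP, 120 min at 30 °C in MOPS/Mg-acetate buffer pH 7.5. Stopped with EDTA; nonspecific signal defined with 100 nM staurosporine; IC50 from counted radioactivity.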

IKKε = target: T2, IKKε (Homo sapiens, UniProt Q14164); test: IKKε kinase assay (384-well Flashplate); type: biochemical; details: 10 μM ATP, 2 hours at 30° C.; read-out: IKKε enzyme assay IC50
T2 sequence (Q14164 1-716): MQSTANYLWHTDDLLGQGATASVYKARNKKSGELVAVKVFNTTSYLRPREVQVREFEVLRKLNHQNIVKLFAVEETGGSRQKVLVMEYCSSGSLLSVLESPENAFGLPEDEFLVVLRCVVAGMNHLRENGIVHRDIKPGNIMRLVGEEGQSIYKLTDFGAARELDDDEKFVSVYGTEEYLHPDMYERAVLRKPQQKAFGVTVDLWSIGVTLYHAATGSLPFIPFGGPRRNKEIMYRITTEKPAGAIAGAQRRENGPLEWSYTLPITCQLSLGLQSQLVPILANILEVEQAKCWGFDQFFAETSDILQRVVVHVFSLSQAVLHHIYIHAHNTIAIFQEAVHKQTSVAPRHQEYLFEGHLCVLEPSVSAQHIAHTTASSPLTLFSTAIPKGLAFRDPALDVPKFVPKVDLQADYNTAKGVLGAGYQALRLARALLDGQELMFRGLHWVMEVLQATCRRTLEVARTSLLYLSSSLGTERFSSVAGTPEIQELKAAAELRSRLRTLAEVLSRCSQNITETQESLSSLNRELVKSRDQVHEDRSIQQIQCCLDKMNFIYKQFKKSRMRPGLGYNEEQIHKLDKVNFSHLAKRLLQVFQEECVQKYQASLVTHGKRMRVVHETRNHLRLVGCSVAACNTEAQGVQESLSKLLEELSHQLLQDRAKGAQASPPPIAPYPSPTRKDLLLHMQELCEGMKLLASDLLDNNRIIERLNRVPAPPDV
How it was run: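 1 nM IKKε with 800 nM biotinylated IκBα(19-42) peptide and 10 μM ATP spiked with ^33P-ATP, 2 h at 30 °C in MOPS buffer pH 7.5. EDTA stop, Flashplate capture, washes, then radioactivity counted; IC50 derived.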

IC50 (phospho-IRF3 @ Ser 386) | IC50 [1] | IC50 (IKKε) | SMILES
200 to 800 nM |  |  | O=C(NCCCNc1nc(Nc2cccc(NC(=O)N3CCCC3)c2)ncc1I)c1cccs1 [BX-795]
 | < 300 nM | < 300 nM | COc1cc(C(=O)N[C@H]2CCCNC2)ccc1-c1cc2nccc(-c3ccc(OC4CCOCC4)c(C#N)c3)c2o1 [Compound A118]
 | < 300 nM | < 300 nM | COCCn1cc(-c2cc3nccc(-c4ccc(OC5CCOCC5)c(C#N)c4)c3s2)cn1 [Compound A119]
 | < 300 nM | < 300 nM | COc1cc(C(=O)N[C@@H]2CCCNC2)ccc1-c1cc2nccc(-c3ccc(OC4CCOCC4)c(C#N)c3)c2o1 [Compound A120]
